Target: T1, hGPR120 (Homo sapiens, UniProt Q5NUL3)
T1 construct: expressed in transfected cells; host or cells: CHO-K1
T1 sequence (Q5NUL3 1-361): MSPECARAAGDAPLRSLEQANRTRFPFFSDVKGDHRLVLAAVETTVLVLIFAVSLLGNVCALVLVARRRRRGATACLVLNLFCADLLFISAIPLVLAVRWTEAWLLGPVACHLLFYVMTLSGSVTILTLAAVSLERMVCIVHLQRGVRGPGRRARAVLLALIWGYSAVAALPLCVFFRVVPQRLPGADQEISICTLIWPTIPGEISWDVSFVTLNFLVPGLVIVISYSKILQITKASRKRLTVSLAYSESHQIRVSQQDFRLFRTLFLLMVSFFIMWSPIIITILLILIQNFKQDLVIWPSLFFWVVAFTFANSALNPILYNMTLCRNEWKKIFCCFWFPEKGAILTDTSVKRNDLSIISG
Assay: Measurement of Activity of GPR120 Agonist (Cell-Based Assay), Calcium 5 dye fluorescence
Conditions: CHO-K1 cells expressing Ga16 and hGPR120
Procedure, shortened: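 CHO-K1 cells co-expressing Gα16 and hGPR120 were seeded, cultured 18 h at 37 °C, then loaded 1 h with Calcium 5 dye. Serially diluted agonists (final 0.5% DMSO) were added and fluorescence read at Ex 485/Em 525 nm, expressed as percent relative to 1% DMSO-only wells.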

Structure (SMILES)	EC50
O=C(O)CC1CCN(c2c(F)cc(-c3ccc(F)c(OC4CCC4)c3)cc2F)CC1 [Example 304, 2-[1-[4-[3-(cyclobutoxy)-4-fluoro-phenyl]-2,6-difluoro-phenyl]-4-piperidyl]acetic acid]	0.2 to 2 µM
COc1ccc(-c2cc(F)c(N3CCC(CC(=O)O)CC3)c(F)c2)cc1OC1CCC1 [Example 305, 2-[1-[4-[3-(cyclobutoxy)-4-methoxy-phenyl]-2,6-difluoro-phenyl]-4-piperidyl]acetic acid]	0.2 to 2 µM
O=C(O)CC1CCN(c2c(F)cc(-c3cc(F)cc(OC4CCC4)c3)cc2F)CC1 [Example 306, 2-[1-[4-[3-(cyclobutoxy)-5-fluoro-phenyl]-2,6-difluoro-phenyl]-4-piperidyl]acetic acid]	0.2 to 2 µM
O=C(O)CC1CCN(c2c(F)cc(-c3cccc(OCC4CC4)n3)cc2Cl)CC1 [Example 307, 2-[1-[2-chloro-4-[6-(cyclopropylmethoxy)-2-pyridyl]-6-fluoro-phenyl]-4-piperidyl]acetic acid]	0.2 to 2 µM
O=C(O)CC1CCN(c2c(F)cc(-c3cccc(OCC4CCC4)n3)cc2F)CC1 [Example 308, 2-[1-[4-[6-(cyclobutylmethoxy)-2-pyridyl]-2,6-difluoro-phenyl]-4-piperidyl]acetic acid]	0.2 to 2 µM
CC(C)(C)Oc1cccc(-c2cc(F)c(N3CCC(CC(=O)O)CC3)c(F)c2)n1 [Example 309, 2-[1-[4-(6-tert-butoxy-2-pyridyl)-2,6-difluoro-phenyl]-4-piperidyl]acetic acid]	0.2 to 2 µM
Cc1c(OC2CCC2)cccc1-c1cc(F)c(N2CCC(CC(=O)O)CC2)c(F)c1 [Example 310, 2-[1-[4-[3-(cyclobutoxy)-2-methyl-phenyl]-2,6-difluoro-phenyl]-4-piperidyl]acetic acid]	2 to 20 µM
O=C(O)CC1CCN(c2c(F)cc(-c3ccc(Cl)c(OC4CCC4)n3)cc2F)CC1 [Example 311, 2-[1-[4-[5-chloro-6-(cyclobutoxy)-2-pyridyl]-2,6-difluoro-phenyl]-4-piperidyl]acetic acid]	0.2 to 2 µM
O=C(O)CC1CCN(c2c(F)cc(-c3cccc(C(=O)C4CC4)n3)cc2F)CC1 [Example 312, 2-[1-[4-[6-(cyclopropanecarbonyl)-2-pyridyl]-2,6-difluoro-phenyl]-4-piperidyl]acetic acid]	0.2 to 2 µM
O=C(O)CC1CCN(c2c(F)cc(-c3cccc(COC4CCC4)n3)cc2F)CC1 [Example 313, 2-[1-[4-[6-(cyclobutoxymethyl)-2-pyridyl]-2,6-difluoro-phenyl]-4-piperidyl]acetic acid]	> 20 µM
CCOc1cccc(-c2cc(F)c(N3CCC(CC(=O)O)CC3)c(F)c2)n1 [Example 314, 2-[1-[4-(6-ethoxy-2-pyridyl)-2,6-difluoro-phenyl]-4-piperidyl]acetic acid]	0.2 to 2 µM
O=C(O)CC1CCN(c2c(F)cc(-c3cccc(OCC(F)(F)F)n3)cc2F)CC1 [Example 315, 2-[1-[2,6-difluoro-4-[6-(2,2,2-trifluoroethoxy)-2-pyridyl]phenyl]-4-piperidyl]acetic acid]	0.2 to 2 µM
CC(Oc1cccc(-c2cc(F)c(N3CCC(CC(=O)O)CC3)c(F)c2)n1)C(F)(F)F (stereo not shown) [Example 316, 2-[1-[2,6-difluoro-4-[6-(2,2,2-trifluoro-1-methyl-ethoxy)-2-pyridyl]phenyl]-4-piperidyl]acetic acid]	0.2 to 2 µM
O=C(O)CC1CCN(c2c(F)cc(-c3cccc(C4CCCC4)n3)cc2F)CC1 [Example 317, 2-[1-[4-(6-cyclopentyl-2-pyridyl)-2,6-difluoro-phenyl]-4-piperidyl]acetic acid]	0.2 to 2 µM
COC(c1cccc(-c2cc(F)c(N3CCC(CC(=O)O)CC3)c(F)c2)n1)C1CC1 (stereo not shown) [Example 318, 2-[1-[4-[6-[cyclopropyl(methoxy)methyl]-2-pyridyl]-2,6-difluoro-phenyl]-4-piperidyl]acetic acid]	2 to 20 µM
O=C(O)CC1CCN(c2c(F)cc(-c3cccc(OC4CCC4)n3)cc2Cl)CC1 [Example 319, 2-[1-[2-chloro-4-[6-(cyclobutoxy)-2-pyridyl]-6-fluoro-phenyl]-4-piperidyl]acetic acid]	0.2 to 2 µM
O=C(O)CC1CCN(c2ccc(-c3cccc(OC4CCC4)n3)cc2F)CC1 [Example 320, 2-[1-[4-[6-(cyclobutoxy)-2-pyridyl]-2-fluoro-phenyl]-4-piperidyl]acetic acid]	0.2 to 2 µM
O=C(O)CC1CN(c2c(F)cc(-c3cccc(OC4CCC4)n3)cc2F)C1 [Example 321, 2-[1-[4-[6-(cyclobutoxy)-2-pyridyl]-2,6-difluoro-phenyl]azetidin-3-yl]acetic acid]	< 0.2 µM
O=C(O)CC1CN(c2c(F)cc(-c3cccc(OCC4CC4)n3)cc2F)C1 [Example 322, 2-[1-[4-[6-(cyclopropylmethoxy)-2-pyridyl]-2,6-difluoro-phenyl]azetidin-3-yl]acetic acid]	< 0.2 µM

Structure (SMILES)	EC50
Cc1cc(OC2CCC2)nc(-c2cc(F)c(N3CCC(CC(=O)O)CC3)c(F)c2)n1 [Example 323, 2-[1-[4-[4-(cyclobutoxy)-6-methyl-pyrimidin-2-yl]-2,6-difluoro-phenyl]-4-piperidyl]acetic acid]	0.2 to 2 µM
CCCCOc1cccc(-c2cc(F)c(N3CCC(CC(=O)O)CC3)c(F)c2)n1 [Example 324, 2-[1-[4-(6-butoxy-2-pyridyl)-2,6-difluoro-phenyl]-4-piperidyl]acetic acid]	0.2 to 2 µM
Cc1cc(-c2cc(F)c(N3CCC(CC(=O)O)CC3)c(F)c2)nc(OC2CCC2)n1 [Example 325, 2-[1-[4-[2-(cyclobutoxy)-6-methyl-pyrimidin-4-yl]-2,6-difluoro-phenyl]-4-piperidyl]acetic acid]	0.2 to 2 µM
O=C(O)CC1CCN(c2c(F)cc(-c3csc(OC4CCC4)n3)cc2F)CC1 [Example 326, 2-[1-[4-[2-(cyclobutoxy)thiazol-4-yl]-2,6-difluoro-phenyl]-4-piperidyl]acetic acid]	0.2 to 2 µM
Cc1cc(OC2CCC2)nc(-c2cc(F)c(N3CCC(CC(=O)O)CC3)c(F)c2)c1 [Example 327, 2-[1-[4-[6-(cyclobutoxy)-4-methyl-2-pyridyl]-2,6-difluoro-phenyl]-4-piperidyl]acetic acid]	0.2 to 2 µM
Cc1cc(OC2CCC2)nc(-c2cc(F)c(N3CC(CC(=O)O)C3)c(F)c2)n1 [Example 328, 2-[1-[4-[4-(cyclobutoxy)-6-methyl-pyrimidin-2-yl]-2,6-difluoro-phenyl]azetidin-3-yl]acetic acid]	0.2 to 2 µM
O=C(O)CC1CCN(c2c(F)cc(-c3cncc(OC4CCC4)n3)cc2F)CC1 [Example 329, 2-[1-[4-[6-(cyclobutoxy)pyrazin-2-yl]-2,6-difluoro-phenyl]-4-piperidyl]acetic acid]	< 0.2 µM
O=C(O)CC1CCN(c2c(F)cc(-c3nccc(OC4CCC4)n3)cc2F)CC1 [Example 330, 2-[1-[4-[4-(cyclobutoxy)pyrimidin-2-yl]-2,6-difluoro-phenyl]-4-piperidyl]acetic acid]	< 0.2 µM
Cc1cc(OCC2CC2)nc(-c2cc(F)c(N3CCC(CC(=O)O)CC3)c(F)c2)n1 [Example 331, 2-[1-[4-[4-(cyclopropylmethoxy)-6-methyl-pyrimidin-2-yl]-2,6-difluoro-phenyl]-4-piperidyl]acetic acid]	0.2 to 2 µM
O=C(O)CC1CCN(c2c(F)cc(-c3nccc(OCC4CC4)n3)cc2F)CC1 [Example 332, 2-[1-[4-[4-(cyclopropylmethoxy)pyrimidin-2-yl]-2,6-difluoro-phenyl]-4-piperidyl]acetic acid]	< 0.2 µM
O=C(O)CC1CCN(c2c(F)cc(-c3cncc(OCC4CC4)n3)cc2F)CC1 [Example 333, 2-[1-[4-[6-(cyclopropylmethoxy)pyrazin-2-yl]-2,6-difluoro-phenyl]-4-piperidyl]acetic acid]	< 0.2 µM
O=C(O)CC1CN(c2c(F)cc(-c3cncc(OC4CCC4)n3)cc2F)C1 [Example 334, 2-[1-[4-[6-(cyclobutoxy)pyrazin-2-yl]-2,6-difluoro-phenyl]azetidin-3-yl]acetic acid]	< 0.2 µM
O=C(O)CC1CN(c2c(F)cc(-c3cncc(OCC4CC4)n3)cc2F)C1 [Example 335, 2-[1-[4-[6-(cyclopropylmethoxy)pyrazin-2-yl]-2,6-difluoro-phenyl]azetidin-3-yl]acetic acid]	< 0.2 µM
O=C(O)CC1CN(c2c(F)cc(-c3nccc(OCC4CC4)n3)cc2F)C1 [Example 337, 2-[1-[4-[4-(cyclopropylmethoxy)pyrimidin-2-yl]-2,6-difluoro-phenyl]azetidin-3-yl]acetic acid]	< 0.2 µM
CCOc1cncc(-c2cc(F)c(N3CCC(CC(=O)O)CC3)c(F)c2)n1 [Example 338, 2-[1-[4-(6-ethoxypyrazin-2-yl)-2,6-difluoro-phenyl]-4-piperidyl]acetic acid]	< 0.2 µM
CC(C)Oc1cncc(-c2cc(F)c(N3CCC(CC(=O)O)CC3)c(F)c2)n1 [Example 339, 2-[1-[2,6-difluoro-4-(6-isopropoxypyrazin-2-yl)phenyl]-4-piperidyl]acetic acid]	< 0.2 µM
COc1cncc(-c2cc(F)c(N3CCC(CC(=O)O)CC3)c(F)c2)n1 [Example 340, 2-[1-[2,6-difluoro-4-(6-methoxypyrazin-2-yl)phenyl]-4-piperidyl]acetic acid]	0.2 to 2 µM
CCCOc1cncc(-c2cc(F)c(N3CCC(CC(=O)O)CC3)c(F)c2)n1 [Example 341, 2-[1-[2,6-difluoro-4-(6-propoxypyrazin-2-yl)phenyl]-4-piperidyl]acetic acid]	< 0.2 µM
